From ChEMBL document CHEMBL5346863, “Discovery of substituted benzyloxy-benzylamine inhibitors of acetyltransferase Eis and their anti-mycobacterial activity” (Eur J Med Chem, 2022) come the findings set out here.

Structures are written as SMILES. Converted amounts (≈) assume the structure as drawn. Some results are limits rather than exact numbers.

In the assay the test system is Mycobacterium tuberculosis variant bovis. Description: Antibacterial activity against Mycobacterium bovis BCG ATCC 35734 assessed as bacterial growth inhibition incubated for 2 to 3 weeks by resazurin dye based assay. The assay is classed as functional. Conditions: time 2-3 weeks. (In general: Alamar Blue is a resazurin reagent that responds to reducing activity.)
The MIC is the least concentration at which growth counts as inhibited. Take `Fc1ccc(COc2cccc(CNCc3ccncc3)c2)cc1`: the MIC is over 62.5 µM.

Take `c1ccc(COc2ccc(CNCc3cccnc3)cc2)cc1`: the minimum inhibitory concentration (MIC) is over 62.5 µM.

For the compound `c1ccc(COc2ccccc2CNCc2cccnc2)cc1`, the MIC is over 62.5 µM.

`Clc1ccc(COc2cccc(CNCc3ccncc3)c2)cc1`: the MIC amounted to 62.5 µM (≈ 21.2 µg/mL).

Consider `Clc1ccc(COc2ccc(CNCc3ccncc3)cc2)cc1`, for which the MIC was 31.3 µM (≈ 10.6 µg/mL).

On to `Fc1ccc(COc2ccccc2CNCc2cccnc2)cc1`, for which the minimal inhibitory concentration (MIC) is over 62.5 µM.

For `Fc1ccc(COc2ccc(CNCc3cccnc3)cc2)cc1`, the MIC amounted to 62.5 µM (≈ 20.1 µg/mL).

Regarding `Fc1ccc(COc2cccc(CNCc3cccnc3)c2)cc1`, the MIC is over 62.5 µM.

As for `Clc1cccc(COc2ccccc2CNCc2ccccc2)c1`, the minimal inhibitory concentration (MIC) was 15.6 µM (≈ 5.27 µg/mL).

With `Clc1ccc(COc2cccc(CNCc3ccccc3)c2)cc1`, the MIC was 7.8 µM (≈ 2.64 µg/mL).

Turning to `Brc1ccc(COc2ccccc2CNCc2ccncc2)cc1`, the MIC amounted to 62.5 µM (≈ 24 µg/mL).

`Cc1ccc(COc2ccc(CNCc3ccccc3)cc2)cc1`: the MIC was determined as 3.9 µM (≈ 1.24 µg/mL).

For `Fc1ccc(COc2cccc(CNCc3ccccc3)c2)cc1`, the MIC came out at 7.8 µM (≈ 2.51 µg/mL).

On to `c1ccc(CNCc2ccc(OCc3ccc(-c4ccccc4)cc3)cc2)cc1`, for which the MIC was 3.9 µM (≈ 1.48 µg/mL).

`Brc1ccc(COc2ccccc2CNCc2ccccc2)cc1`: the MIC worked out at 62.5 µM (≈ 23.9 µg/mL).

As to `Clc1ccc(COc2ccc(CNCc3ccccc3)cc2)cc1`, the MIC came to 7.8 µM (≈ 2.64 µg/mL).

For `Clc1ccc(COc2cccc(CNCc3cccnc3)c2)cc1`, the MIC stood at 62.5 µM (≈ 21.2 µg/mL).

Take `COc1ccc(COc2ccc(CNCc3ccccc3)cc2)cc1`: the MIC amounted to 7.8 µM (≈ 2.6 µg/mL).

In the case of `Fc1ccc(COc2ccc(CNCc3ccccc3)cc2)cc1`, the MIC is over 62.5 µM.

As for `Clc1ccc(COc2ccccc2CNCc2ccncc2)cc1`, the MIC turned out to be 62.5 µM (≈ 21.2 µg/mL).

Consider `CC(C)(C)c1ccc(COc2ccc(CNCc3ccccc3)cc2)cc1`, for which the MIC is 2 µM (≈ 0.719 µg/mL).

For the compound `Brc1ccc(COc2ccc(CNCc3ccccc3)cc2)cc1`, the MIC worked out at 3.9 µM (≈ 1.49 µg/mL).

With `CC(C)c1ccc(COc2ccc(CNCc3ccccc3)cc2)cc1`, the MIC was 1 µM (≈ 0.345 µg/mL).

For the compound `Brc1ccccc1COc1ccc(CNCc2ccccc2)cc1`, the MIC is 7.8 µM (≈ 2.98 µg/mL).

Turning to `c1ccc(CNCc2ccccc2OCc2ccccc2)cc1`, the MIC is 62.5 µM (≈ 19 µg/mL).

`Fc1ccc(COc2ccccc2CNCc2ccccc2)cc1`: the MIC is over 62.5 µM.

As to `Brc1cccc(COc2ccc(CNCc3ccccc3)cc2)c1`, the minimum inhibitory concentration (MIC) came out at 7.8 µM (≈ 2.98 µg/mL).

As for `c1ccc(COc2ccccc2CNCc2ccncc2)cc1`, the MIC is over 62.5 µM.

For `Clc1ccc(COc2ccc(CNCc3cccnc3)cc2)cc1`, the MIC is 62.5 µM (≈ 21.2 µg/mL).

In the case of `Clc1cccc(COc2ccccc2CNCc2cccnc2)c1`, the MIC was determined as 62.5 µM (≈ 21.2 µg/mL).

Turning to `Clc1ccc(COc2ccccc2CNCc2ccccc2)cc1`, the MIC was 62.5 µM (≈ 21.1 µg/mL).

As for `Fc1ccc(COc2ccc(CNCc3ccncc3)cc2)cc1`, the MIC was 62.5 µM (≈ 20.1 µg/mL).

Consider `Brc1ccc(COc2ccccc2CNCc2cccnc2)cc1`, for which the MIC was 62.5 µM (≈ 24 µg/mL).

Consider `Clc1cccc(COc2ccccc2CNCc2ccncc2)c1`, for which the MIC was over 62.5 µM.

Regarding `c1ccc(COc2ccc(CNCc3ccncc3)cc2)cc1`, the MIC is over 62.5 µM.

With `c1ccc(CNCc2ccc(OCc3ccccc3)cc2)cc1`, the MIC came to 31.3 µM (≈ 9.5 µg/mL).

Regarding `NNC(=O)c1ccncc1` [ISONIAZID], the MIC was at most 0.25 µM.
